Results on 33 molecules are retold here after ChEMBL document CHEMBL4270669 (J Med Chem, 2018).

Assay [1] can be described thus: Inhibition of TORC2 in human A2058 cells assessed as decrease in PKB/Akt phosphorylation at Ser473 after 1 hr by Western blot analysis. It is filed as cell-based. Particulars: A2058, 1 h. (In general: In western blotting, separated proteins are transferred to a membrane and probed.)
Assay [2] concerns the target Serine/threonine-protein kinase mTOR (Homo sapiens, UniProt P42345).
Assay [3] is described as follows: Inhibition of TORC1 in human A2058 cells assessed as decrease in S6 phosphorylation at Ser235/236 after 1 hr by Western blot analysis. Type of assay: cell-based. Conditions: A2058, 1 h.
For assay [4], the target named is T1, Phosphatidylinositol 4,5-bisphosphate 3-kinase catalytic subunit alpha isoform (Homo sapiens, UniProt P42336).
Assay [5] has as its target Phosphatidylinositol 4,5-bisphosphate 3-kinase catalytic subunit gamma isoform (Homo sapiens, UniProt P48736).
Description: Inhibition of human PI3Kgamma (144 to 1102 residues) expressed in mammalian expression system by KINOMEscan assay
In assay [6] the target is T1, Phosphatidylinositol 4,5-bisphosphate 3-kinase catalytic subunit alpha isoform. This is another data set of the same source.
Description: Inhibition of human PI3Kalpha (108 to 1068 residues) expressed in mammalian expression system by KINOMEscan assay
Assay [7] concerns the target Phosphatidylinositol 4-kinase beta (Homo sapiens, UniProt Q9UBF8).
Description: Inhibition of human PI4Kbeta (1 to 828 residues) expressed in mammalian expression system by KINOMEscan assay
For assay [8], the target named is Phosphatidylinositol 4,5-bisphosphate 3-kinase catalytic subunit beta isoform (Homo sapiens, UniProt P42338).
Description: Inhibition of human PI3Kbeta (118 to 1070 residues) expressed in mammalian expression system by KINOMEscan assay
Assay [9] addresses T2, Phosphatidylinositol 4,5-bisphosphate 3-kinase catalytic subunit delta isoform (Homo sapiens, UniProt O00329).
T2 sequence (O00329 whole entry): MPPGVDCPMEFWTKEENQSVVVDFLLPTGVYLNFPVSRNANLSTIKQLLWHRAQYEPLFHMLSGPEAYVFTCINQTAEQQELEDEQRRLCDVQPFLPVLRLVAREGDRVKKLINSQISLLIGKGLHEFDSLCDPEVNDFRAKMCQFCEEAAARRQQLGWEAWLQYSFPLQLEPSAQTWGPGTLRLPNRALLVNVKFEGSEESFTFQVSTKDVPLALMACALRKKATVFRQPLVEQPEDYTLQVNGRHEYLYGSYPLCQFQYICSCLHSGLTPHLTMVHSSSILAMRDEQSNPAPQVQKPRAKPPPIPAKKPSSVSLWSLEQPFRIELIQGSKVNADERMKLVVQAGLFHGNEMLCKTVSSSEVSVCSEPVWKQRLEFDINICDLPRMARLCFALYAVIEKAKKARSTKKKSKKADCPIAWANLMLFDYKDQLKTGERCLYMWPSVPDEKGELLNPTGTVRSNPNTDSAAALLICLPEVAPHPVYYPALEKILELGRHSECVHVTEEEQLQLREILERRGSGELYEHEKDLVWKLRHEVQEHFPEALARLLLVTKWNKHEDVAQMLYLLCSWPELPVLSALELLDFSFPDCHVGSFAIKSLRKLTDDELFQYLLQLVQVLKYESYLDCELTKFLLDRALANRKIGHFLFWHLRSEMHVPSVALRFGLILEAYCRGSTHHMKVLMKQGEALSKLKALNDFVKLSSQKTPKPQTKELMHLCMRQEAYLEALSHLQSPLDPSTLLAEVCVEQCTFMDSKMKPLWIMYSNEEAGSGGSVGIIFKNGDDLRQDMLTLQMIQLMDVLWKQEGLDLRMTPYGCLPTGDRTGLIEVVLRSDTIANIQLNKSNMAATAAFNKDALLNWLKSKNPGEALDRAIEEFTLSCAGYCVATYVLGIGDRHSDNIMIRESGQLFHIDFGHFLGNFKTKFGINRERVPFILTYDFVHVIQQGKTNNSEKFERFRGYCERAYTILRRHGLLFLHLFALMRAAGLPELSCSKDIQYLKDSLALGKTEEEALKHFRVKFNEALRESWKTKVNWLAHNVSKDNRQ
Description: Inhibition of human PI3Kdelta (108 to 1044 residues) expressed in mammalian expression system by KINOMEscan assay

The target of assay [10] is Phosphatidylinositol 3-kinase catalytic subunit type 3 (Homo sapiens, UniProt Q8NEB9). The assay can be described thus: Inhibition of human VPS34 (282 to 879 residues) expressed in mammalian expression system by KINOMEscan assay.
Chain of Phosphatidylinositol 3-kinase catalytic subunit type 3 (Q8NEB9 whole entry, the tested form may be a part): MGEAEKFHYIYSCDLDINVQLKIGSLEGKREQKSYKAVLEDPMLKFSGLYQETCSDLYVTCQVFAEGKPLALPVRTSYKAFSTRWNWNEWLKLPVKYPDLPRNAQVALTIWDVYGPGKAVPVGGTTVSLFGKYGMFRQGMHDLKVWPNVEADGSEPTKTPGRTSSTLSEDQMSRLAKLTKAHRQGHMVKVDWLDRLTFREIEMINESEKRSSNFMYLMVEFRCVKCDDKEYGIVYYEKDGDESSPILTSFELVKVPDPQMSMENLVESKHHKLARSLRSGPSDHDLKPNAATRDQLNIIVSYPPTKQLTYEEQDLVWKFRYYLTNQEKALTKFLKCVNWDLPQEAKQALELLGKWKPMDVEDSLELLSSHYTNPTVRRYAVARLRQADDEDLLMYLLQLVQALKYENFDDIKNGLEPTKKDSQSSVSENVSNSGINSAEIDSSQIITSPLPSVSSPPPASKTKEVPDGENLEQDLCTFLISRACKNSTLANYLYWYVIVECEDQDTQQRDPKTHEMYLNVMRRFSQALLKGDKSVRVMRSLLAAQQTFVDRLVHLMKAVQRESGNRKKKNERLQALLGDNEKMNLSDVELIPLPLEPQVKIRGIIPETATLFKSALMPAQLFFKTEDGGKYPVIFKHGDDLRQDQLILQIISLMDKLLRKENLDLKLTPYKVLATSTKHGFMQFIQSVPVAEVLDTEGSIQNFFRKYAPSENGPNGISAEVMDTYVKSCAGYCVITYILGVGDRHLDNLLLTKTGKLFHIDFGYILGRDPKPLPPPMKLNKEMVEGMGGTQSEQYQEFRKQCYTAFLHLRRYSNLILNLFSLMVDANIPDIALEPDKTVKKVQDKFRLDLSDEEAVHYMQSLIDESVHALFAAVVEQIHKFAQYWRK

T1 sequence (P42336 whole entry, canonical isoform): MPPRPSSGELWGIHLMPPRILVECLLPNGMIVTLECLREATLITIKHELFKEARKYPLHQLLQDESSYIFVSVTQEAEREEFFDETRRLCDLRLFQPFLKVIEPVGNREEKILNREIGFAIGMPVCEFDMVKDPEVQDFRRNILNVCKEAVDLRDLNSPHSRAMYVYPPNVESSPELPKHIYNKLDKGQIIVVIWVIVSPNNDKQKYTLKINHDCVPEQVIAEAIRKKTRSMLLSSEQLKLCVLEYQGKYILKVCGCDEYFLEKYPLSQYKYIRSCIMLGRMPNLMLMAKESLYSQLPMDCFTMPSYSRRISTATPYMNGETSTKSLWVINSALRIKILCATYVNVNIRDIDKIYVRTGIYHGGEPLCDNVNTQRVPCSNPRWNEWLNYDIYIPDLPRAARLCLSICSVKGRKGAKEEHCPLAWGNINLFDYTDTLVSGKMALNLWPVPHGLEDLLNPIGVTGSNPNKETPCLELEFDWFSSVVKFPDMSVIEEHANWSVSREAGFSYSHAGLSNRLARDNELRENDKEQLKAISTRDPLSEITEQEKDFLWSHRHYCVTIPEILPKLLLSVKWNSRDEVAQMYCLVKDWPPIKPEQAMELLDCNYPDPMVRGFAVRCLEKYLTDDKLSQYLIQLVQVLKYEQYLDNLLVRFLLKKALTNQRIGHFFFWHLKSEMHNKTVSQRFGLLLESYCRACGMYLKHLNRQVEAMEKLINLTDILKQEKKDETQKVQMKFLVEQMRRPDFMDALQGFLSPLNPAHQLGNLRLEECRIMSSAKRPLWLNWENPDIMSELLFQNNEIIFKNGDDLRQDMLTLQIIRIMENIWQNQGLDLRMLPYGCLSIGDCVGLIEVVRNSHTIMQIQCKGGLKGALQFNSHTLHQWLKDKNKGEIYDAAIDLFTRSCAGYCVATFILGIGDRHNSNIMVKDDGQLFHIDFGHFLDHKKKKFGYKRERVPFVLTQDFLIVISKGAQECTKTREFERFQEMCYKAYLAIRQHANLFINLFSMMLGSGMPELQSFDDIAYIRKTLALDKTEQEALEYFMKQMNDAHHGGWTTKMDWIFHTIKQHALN
Chain of Phosphatidylinositol 4-kinase beta (Q9UBF8 whole entry, canonical isoform): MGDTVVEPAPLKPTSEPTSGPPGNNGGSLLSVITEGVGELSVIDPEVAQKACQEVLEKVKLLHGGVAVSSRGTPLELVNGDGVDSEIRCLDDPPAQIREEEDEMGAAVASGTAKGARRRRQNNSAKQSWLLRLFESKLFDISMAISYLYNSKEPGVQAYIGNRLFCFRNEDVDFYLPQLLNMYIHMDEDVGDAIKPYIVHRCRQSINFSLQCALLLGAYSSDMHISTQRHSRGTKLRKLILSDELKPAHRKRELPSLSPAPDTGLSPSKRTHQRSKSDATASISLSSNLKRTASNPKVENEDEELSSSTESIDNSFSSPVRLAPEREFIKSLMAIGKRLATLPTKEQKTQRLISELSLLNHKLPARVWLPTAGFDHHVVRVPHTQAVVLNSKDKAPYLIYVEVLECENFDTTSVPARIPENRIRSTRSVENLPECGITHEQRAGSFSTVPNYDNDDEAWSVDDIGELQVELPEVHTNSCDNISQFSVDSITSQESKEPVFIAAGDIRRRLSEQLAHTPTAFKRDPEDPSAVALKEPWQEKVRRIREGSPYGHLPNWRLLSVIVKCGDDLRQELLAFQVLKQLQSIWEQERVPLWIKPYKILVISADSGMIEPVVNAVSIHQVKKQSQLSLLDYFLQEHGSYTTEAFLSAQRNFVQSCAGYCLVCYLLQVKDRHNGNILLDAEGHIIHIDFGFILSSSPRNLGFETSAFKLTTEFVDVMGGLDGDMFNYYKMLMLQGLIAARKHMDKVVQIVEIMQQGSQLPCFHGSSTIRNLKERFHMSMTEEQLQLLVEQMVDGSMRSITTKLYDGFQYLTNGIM
Chain of Phosphatidylinositol 4,5-bisphosphate 3-kinase catalytic subunit gamma isoform (P48736 whole entry, canonical isoform): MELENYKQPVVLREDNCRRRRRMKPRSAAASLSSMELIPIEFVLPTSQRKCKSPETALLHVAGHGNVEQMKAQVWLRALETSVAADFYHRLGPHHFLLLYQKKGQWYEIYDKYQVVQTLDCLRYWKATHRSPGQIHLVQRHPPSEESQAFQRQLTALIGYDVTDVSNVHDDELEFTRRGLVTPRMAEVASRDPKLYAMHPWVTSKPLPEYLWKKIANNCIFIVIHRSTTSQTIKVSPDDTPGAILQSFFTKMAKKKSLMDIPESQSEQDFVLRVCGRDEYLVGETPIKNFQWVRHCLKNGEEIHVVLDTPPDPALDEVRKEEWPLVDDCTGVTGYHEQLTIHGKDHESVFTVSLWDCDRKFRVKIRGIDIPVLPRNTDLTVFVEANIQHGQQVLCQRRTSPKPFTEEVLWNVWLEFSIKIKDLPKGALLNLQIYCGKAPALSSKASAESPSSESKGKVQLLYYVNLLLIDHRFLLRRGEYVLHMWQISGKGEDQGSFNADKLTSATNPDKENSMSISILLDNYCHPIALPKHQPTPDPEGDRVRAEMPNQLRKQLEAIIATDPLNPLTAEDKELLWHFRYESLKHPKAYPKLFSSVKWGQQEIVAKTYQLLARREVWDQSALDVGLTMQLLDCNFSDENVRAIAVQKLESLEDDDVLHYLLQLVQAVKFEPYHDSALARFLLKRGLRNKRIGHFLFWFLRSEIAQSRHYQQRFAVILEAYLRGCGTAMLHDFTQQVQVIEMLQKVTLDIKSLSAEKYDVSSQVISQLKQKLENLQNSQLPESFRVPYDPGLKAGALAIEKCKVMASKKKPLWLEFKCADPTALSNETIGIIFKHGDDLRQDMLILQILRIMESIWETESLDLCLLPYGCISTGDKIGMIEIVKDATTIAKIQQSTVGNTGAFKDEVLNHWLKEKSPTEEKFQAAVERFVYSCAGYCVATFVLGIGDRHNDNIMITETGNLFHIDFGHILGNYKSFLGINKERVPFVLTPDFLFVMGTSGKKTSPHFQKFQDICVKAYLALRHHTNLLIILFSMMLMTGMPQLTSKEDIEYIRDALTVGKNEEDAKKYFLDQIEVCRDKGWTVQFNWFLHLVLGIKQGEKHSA
Chain of Phosphatidylinositol 4,5-bisphosphate 3-kinase catalytic subunit beta isoform (P42338 whole entry, canonical isoform): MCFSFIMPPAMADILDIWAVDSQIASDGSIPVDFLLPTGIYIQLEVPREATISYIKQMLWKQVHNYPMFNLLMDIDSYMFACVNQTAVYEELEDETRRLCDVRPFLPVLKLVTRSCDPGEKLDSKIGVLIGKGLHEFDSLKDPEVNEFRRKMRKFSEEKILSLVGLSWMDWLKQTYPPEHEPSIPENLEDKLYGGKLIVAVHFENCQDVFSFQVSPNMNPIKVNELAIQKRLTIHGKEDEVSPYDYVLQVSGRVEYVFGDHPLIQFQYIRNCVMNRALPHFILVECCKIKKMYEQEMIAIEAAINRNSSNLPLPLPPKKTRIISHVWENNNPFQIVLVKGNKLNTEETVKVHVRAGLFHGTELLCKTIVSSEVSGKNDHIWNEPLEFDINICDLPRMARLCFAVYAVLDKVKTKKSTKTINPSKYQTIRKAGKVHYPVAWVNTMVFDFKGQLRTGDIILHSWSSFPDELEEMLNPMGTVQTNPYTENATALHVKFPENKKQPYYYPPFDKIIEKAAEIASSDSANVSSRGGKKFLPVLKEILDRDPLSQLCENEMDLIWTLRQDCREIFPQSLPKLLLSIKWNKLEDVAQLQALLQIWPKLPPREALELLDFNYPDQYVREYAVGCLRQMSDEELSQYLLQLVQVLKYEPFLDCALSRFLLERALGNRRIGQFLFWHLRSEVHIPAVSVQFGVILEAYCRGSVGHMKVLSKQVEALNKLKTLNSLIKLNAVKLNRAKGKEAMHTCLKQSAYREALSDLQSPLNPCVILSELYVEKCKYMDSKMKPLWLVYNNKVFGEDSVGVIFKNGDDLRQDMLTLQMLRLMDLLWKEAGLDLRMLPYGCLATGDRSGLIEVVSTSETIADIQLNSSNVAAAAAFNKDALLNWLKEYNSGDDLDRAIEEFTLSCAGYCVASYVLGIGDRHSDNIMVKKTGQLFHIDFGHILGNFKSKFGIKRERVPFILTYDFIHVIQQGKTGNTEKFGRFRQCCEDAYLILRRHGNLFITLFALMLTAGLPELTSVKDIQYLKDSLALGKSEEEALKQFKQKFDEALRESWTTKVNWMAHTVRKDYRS

The term IC50 denotes the concentration needed to halve the response being measured. Usually Ki stands for a measure of affinity in units of concentration, obtained from inhibition or displacement. Lower therefore signals higher affinity. As for `Nc1cc(C(F)(F)F)c(-c2nc(N3CCOCC3)cc(N3CCOCC3)n2)cn1`, the 50% inhibitory concentration (IC50) in assay [1] came out at 729 nM; in assay [3], 926 nM. Further, the inhibitory constant (Ki) in assay [2] was 911 nM; in assay [4] it was 41 nM.
The like results for `C[C@H]1COC[C@H](C)N1c1nc(-c2cnc(N)cc2C(F)F)nc(N2[C@@H](C)COC[C@@H]2C)n1` were, in that order, 379 nM, 294 nM, 21.1 nM and 64 nM.
In the same order, the values of `Nc1cc(C(F)F)c(-c2cc(N3CCOCC3)nc(N3CCOCC3)n2)cn1` are 207 nM, 184 nM, 35 nM and 18 nM.
In the same order, the values of `Nc1cc(C(F)F)c(-c2nc(N3CCOCC3)nc(N3C4CCC3COC4)n2)cn1` are 156 nM, 113 nM, 11.2 nM and 25.8 nM.
Regarding `Nc1cc(C(F)(F)F)c(-c2nc(N3C4CCC3COC4)cc(N3C4CCC3COC4)n2)cn1`, the IC50 in [1] turned out to be 3320 nM; in assay [3] it was 1940 nM. For the same molecule, the Ki in assay [2] came to 435 nM; in [4], 5670 nM.
In the same order, the values of `Nc1cc(C(F)F)c(-c2nc(N3C4COCC3COC4)nc(N3C4COCC3COC4)n2)cn1` are 357 nM, 275 nM, 31 nM and 2380 nM.
The term Kd denotes the constant that tells how readily two partners part at equilibrium. Turning to `CNC(=O)c1cccc(-c2ccc3c(N4CCOC[C@@H]4C)nc(N4CCOC[C@@H]4C)nc3n2)c1` [VISTUSERTIB], the Kd in assay [5] was 8.4 µM; in [6], 33 nM; in assay [7] it was more than 30000 nM; in assay [8] it was 3.3 µM; in assay [9], 1500 nM; in assay [10], 23 µM.
As for `Nc1cc(C(F)F)c(-c2nc(N3C[C@@H]4C[C@H]3CO4)nc(N3C[C@@H]4C[C@H]3CO4)n2)cn1`, the figures for the half-maximal inhibitory concentration (IC50) in assay [1] and in assay [3] were 4040 nM and 1560 nM, respectively. The Ki in assay [2] is 18.5 nM; in assay [4] it was more than 20000 nM.
In the same order, the values of `Nc1cc(C(F)F)c(-c2nc(N3CCOCC3)cc(N3CCOCC3)n2)cn1` are 243 nM, 256 nM, 42 nM and 29 nM.
In the same order, the values of `C[C@@H]1COCCN1c1nc(-c2cnc(N)cc2C(F)F)nc(N2CCOC[C@H]2C)n1` are 364 nM, 310 nM, 12.6 nM and 633 nM.
The like results for `Nc1cc(C(F)F)c(-c2nc(N3C[C@H]4C[C@@H]3CO4)nc(N3C[C@H]4C[C@@H]3CO4)n2)cn1` were, in that order, 17700 nM, 12600 nM, 308 nM and 4630 nM.
With `CC1(C)CN(c2nc(-c3cnc(N)cc3C(F)F)nc(N3CCOC(C)(C)C3)n2)CCO1`, the values for the half-maximal inhibitory concentration (IC50) in [1] and in assay [3] were 4820 nM and 2330 nM, respectively. The values for the inhibition constant (Ki) in [2] and in assay [4] were 73.4 nM and 8790 nM, respectively.
`Nc1cc(C(F)F)c(-c2nc(N3CCOCC3)nc(N3CCOCC3)n2)cn1`: the figures for the half-inhibitory concentration (IC50) in [1] and in [3] were 102 nM and 118 nM, respectively.
`Nc1cc(C(F)F)c(-c2nc(N3C4COCC3C4)nc(N3C4COCC3C4)n2)cn1`: the IC50 in assay [1] worked out at 17900 nM; in [3], 5770 nM. The Ki in assay [2] is 551 nM; in assay [4], more than 20000 nM.
Regarding `Nc1cc(C(F)(F)F)c(-c2cc(N3CCOCC3)nc(N3CCOCC3)n2)cn1` [BUPARLISIB], the IC50 in assay [1] stood at 416 nM; in assay [3], 553 nM.
As for `Nc1cc(C(F)F)c(-c2nc(N3C4CCCC3COC4)nc(N3C4CCCC3COC4)n2)cn1`, the concentration for half-maximal inhibition (IC50) came out at 1210 nM in assay [1] and 1300 nM in assay [3]. In addition, the inhibition constant (Ki) in assay [2] is 60.2 nM; in assay [4] it was more than 20000 nM.
The like results for `CC[C@@H]1COCCN1c1nc(-c2cnc(N)cc2C(F)F)nc(N2CCOC[C@H]2CC)n1` were, in that order, 354 nM, 209 nM, 13.6 nM and 32.2 nM.
With `C[C@@H]1COC[C@@H](C)N1c1nc(-c2cnc(N)cc2C(F)F)nc(N2[C@H](C)COC[C@H]2C)n1`, the IC50 in [1] was 3570 nM; in assay [3], 1190 nM. For the same molecule, the figures for the Ki in [2] and in assay [4] were 79.9 nM and more than 20000 nM, respectively.
The like results for `Nc1cc(C(F)F)c(-c2nc(N3CCOCC34CCC4)nc(N3CCOCC34CCC4)n2)cn1` were, in that order, 942 nM, 526 nM, 32.8 nM and 632 nM.
Molecule `CC(C)n1nc(-c2ccc3oc(N)nc3c2)c2c(N)ncnc21` [SAPANISERTIB] yielded a Kd in [10] of 8.2 µM.
As to `Nc1cc(CF)c(-c2nc(N3CCOCC3)nc(N3CCOCC3)n2)cn1`, the values for the IC50 in assay [1] and in [3] were 397 nM and 218 nM, respectively. The inhibitory constant (Ki) in assay [2] amounted to 54.3 nM; in assay [4], 68.6 nM.
As for `CO[C@H]1CC[C@H](N2C(=O)CNc3ncc(-c4ccc(C(C)(C)O)nc4)nc32)CC1` [ONATASERTIB], the Kd turned out to be 39 nM in [7] and 2.5 µM in [10].
In the case of `C[C@@H]1COCCN1c1nc(-c2cnc(N)cc2C(F)F)nc(N2CCOCC2)n1`, the IC50 in assay [1] was 147 nM; in assay [3], 138 nM. Besides, the inhibition constant (Ki) in assay [2] came to 9.6 nM; in [4], 20.8 nM.
For `Nc1cc(CO)c(-c2nc(N3CCOCC3)nc(N3CCOCC3)n2)cn1`, the IC50 amounted to 341 nM in assay [1] and 528 nM in [3]. The Ki in [2] is 74.5 nM; in [4], 81.3 nM.
In the same order, the values of `Nc1cc(C(F)F)c(-c2nc(N3CC4CCC(C3)O4)nc(N3CC4CCC(C3)O4)n2)cn1` are 630 nM, 301 nM, 13.9 nM and 1300 nM.
In the same order, the values of `COC(OC)c1cc(N)ncc1-c1nc(N2CCOCC2)nc(N2CCOCC2)n1` are 1200 nM, 2110 nM, 474 nM and 129 nM.
The like results for `Nc1cc(C(F)F)c(-c2nc(N3C4CCC3COC4)cc(N3C4CCC3COC4)n2)cn1` were, in that order, 650 nM, 395 nM, 60 nM and 2230 nM.
In the case of `Nc1cc(C(F)F)c(-c2cc(N3C4CCC3COC4)nc(N3C4CCC3COC4)n2)cn1`, the concentration for half-maximal inhibition (IC50) in assay [1] was 287 nM; in [3], 164 nM. Also, the figures for the Ki in assay [2] and in assay [4] were 12 nM and 2090 nM, respectively.
On to `COc1cc(N)ncc1-c1nc(N2CCOCC2)nc(N2CCOCC2)n1`, for which the results for the IC50 in [1] and in assay [3] were 1850 nM and 1920 nM, respectively. Besides, the results for the inhibition constant Ki in assay [2] and in assay [4] were 483 nM and 693 nM, respectively.
The like results for `Nc1cc(C(F)(F)F)c(-c2cc(N3C4CCC3COC4)nc(N3C4CCC3COC4)n2)cn1` were, in that order, 520 nM, 318 nM, 30 nM and 2190 nM.
In the same order, the values of `C[C@@H]1CN(c2nc(-c3cnc(N)cc3C(F)F)nc(N3C[C@@H](C)O[C@@H](C)C3)n2)C[C@H](C)O1` are 20900 nM, 10400 nM, 650 nM and 15400 nM.
In the case of `C[C@@H]1COC[C@H](C)N1c1nc(-c2cnc(N)cc2C(F)F)nc(N2[C@H](C)COC[C@@H]2C)n1`, the half-inhibitory concentration (IC50) in assay [1] came out at 252 nM; in [3], 160 nM. The results for the Ki in assay [2] and in assay [4] were 3.5 nM and 141 nM, respectively.
The like results for `Nc1cc(C(F)F)c(-c2nc(N3CCOCC3)nc(N3CC4CCC(C3)O4)n2)cn1` were, in that order, 144 nM, 112 nM, 3.4 nM and 23.7 nM.
